Measurements taken from patent publication US4868181A, “1,4-dihydropyridine derivatives with calcium agonist and alpha1 -antagonist activity” (E. I. Du Pont de Nemours and Company, priority 1987, dated 1989).

Experiments:
guinea pig left atria = experiment: Positive inotropic effect in guinea pig left atria; conditions: 37°; for EC50: left atria paced at 2Hz, cumulative addition to maximum 10^-4, read-out: EC50 (concentration that increases DT by 50% above the control DT); for Intrinsic Activity (ratio of the maximum effect of the test compound to that of Bay K 8644): relative to Bay K 8644, left atria paced at 2Hz
Experimental: Guinea pigs are killed by cervical dislocation. The left atria are removed and mounted at 1 gm resting tension in tissue baths containing oxygenated Krebs bicarbonate solution which is kept at 37°. The left atria are electrically paced at 2Hz with square wave pulses of 1 msec duration. The voltage is set at 1.5× threshold level.
After a one hour equilibration period, control values for developed tension (DT, gm) are recorded. Test compounds are then added to the baths, in a cumulative manner to a maximum concentration of 10^-4, to obtain a concentration-response curve. Treatment values of DT are obtained after the rug effect has reached a plateau and the exposure time for each concentration is 5-8 minutes. Percent change of the treatment value from the control value is calculated at each concentration of the test compound.

calcium ions influx = conditions: cited from earlier work
[1] = system: coronary vasoconstriction; conditions: cited from earlier work
alpha1 -adrenoceptors = experiment: [^3 H]-prazosin binding assay (affinity for alpha1-adrenoceptors); conditions: rat brain membranes, 0.2 nM [^3 H]-prazosin, 60 minutes at 25°
Experimental: The [^3 H]-prazosin binding assay was carried out according to the method described by Timmermans, P. B. M. W. M., Schoop, A. M. C., and Van Zwieten, P. A.: Biochem Pharmacol., 31, 899-905, 1982 (1). The reaction mixture contained partially purified rat brain membranes (source of alpha1 -adrenoceptors), 0.2 nM [^3 H]-prazosin with or without potential displacer in Tris buffer. The mixture was incubated for 60 minutes at 25° and subsequently terminated by rapid filtration through glass fiber-filter. Receptor-bound [^3 H]-prazosin trapped in the filter was quantitated by scintillation counting. The inhibitory concentration (IC50) of potential displacer which gives 50% displacement of the total specifically bound [^3 H]-prazosin is presented as a measure of the affinity of such compound for the alpha1 -adrenoceptor.

Ca^2 + channels = target: T1, Ca^2 + channels (Rattus norvegicus, UniProt P22002); experiment: [^3 H]-Nitrendipine binding assay (affinity for calcium channels); conditions: rat cardiac microsomes, 0.5 nM [^3 H]-nitrendipine, 60 minutes at 25°
T1 construct: rat cardiac microsomes (source of Ca^2 + channels); from tissue; host or cells: rat cardiac microsomes
T1 sequence (P22002 whole entry, other chains not shown): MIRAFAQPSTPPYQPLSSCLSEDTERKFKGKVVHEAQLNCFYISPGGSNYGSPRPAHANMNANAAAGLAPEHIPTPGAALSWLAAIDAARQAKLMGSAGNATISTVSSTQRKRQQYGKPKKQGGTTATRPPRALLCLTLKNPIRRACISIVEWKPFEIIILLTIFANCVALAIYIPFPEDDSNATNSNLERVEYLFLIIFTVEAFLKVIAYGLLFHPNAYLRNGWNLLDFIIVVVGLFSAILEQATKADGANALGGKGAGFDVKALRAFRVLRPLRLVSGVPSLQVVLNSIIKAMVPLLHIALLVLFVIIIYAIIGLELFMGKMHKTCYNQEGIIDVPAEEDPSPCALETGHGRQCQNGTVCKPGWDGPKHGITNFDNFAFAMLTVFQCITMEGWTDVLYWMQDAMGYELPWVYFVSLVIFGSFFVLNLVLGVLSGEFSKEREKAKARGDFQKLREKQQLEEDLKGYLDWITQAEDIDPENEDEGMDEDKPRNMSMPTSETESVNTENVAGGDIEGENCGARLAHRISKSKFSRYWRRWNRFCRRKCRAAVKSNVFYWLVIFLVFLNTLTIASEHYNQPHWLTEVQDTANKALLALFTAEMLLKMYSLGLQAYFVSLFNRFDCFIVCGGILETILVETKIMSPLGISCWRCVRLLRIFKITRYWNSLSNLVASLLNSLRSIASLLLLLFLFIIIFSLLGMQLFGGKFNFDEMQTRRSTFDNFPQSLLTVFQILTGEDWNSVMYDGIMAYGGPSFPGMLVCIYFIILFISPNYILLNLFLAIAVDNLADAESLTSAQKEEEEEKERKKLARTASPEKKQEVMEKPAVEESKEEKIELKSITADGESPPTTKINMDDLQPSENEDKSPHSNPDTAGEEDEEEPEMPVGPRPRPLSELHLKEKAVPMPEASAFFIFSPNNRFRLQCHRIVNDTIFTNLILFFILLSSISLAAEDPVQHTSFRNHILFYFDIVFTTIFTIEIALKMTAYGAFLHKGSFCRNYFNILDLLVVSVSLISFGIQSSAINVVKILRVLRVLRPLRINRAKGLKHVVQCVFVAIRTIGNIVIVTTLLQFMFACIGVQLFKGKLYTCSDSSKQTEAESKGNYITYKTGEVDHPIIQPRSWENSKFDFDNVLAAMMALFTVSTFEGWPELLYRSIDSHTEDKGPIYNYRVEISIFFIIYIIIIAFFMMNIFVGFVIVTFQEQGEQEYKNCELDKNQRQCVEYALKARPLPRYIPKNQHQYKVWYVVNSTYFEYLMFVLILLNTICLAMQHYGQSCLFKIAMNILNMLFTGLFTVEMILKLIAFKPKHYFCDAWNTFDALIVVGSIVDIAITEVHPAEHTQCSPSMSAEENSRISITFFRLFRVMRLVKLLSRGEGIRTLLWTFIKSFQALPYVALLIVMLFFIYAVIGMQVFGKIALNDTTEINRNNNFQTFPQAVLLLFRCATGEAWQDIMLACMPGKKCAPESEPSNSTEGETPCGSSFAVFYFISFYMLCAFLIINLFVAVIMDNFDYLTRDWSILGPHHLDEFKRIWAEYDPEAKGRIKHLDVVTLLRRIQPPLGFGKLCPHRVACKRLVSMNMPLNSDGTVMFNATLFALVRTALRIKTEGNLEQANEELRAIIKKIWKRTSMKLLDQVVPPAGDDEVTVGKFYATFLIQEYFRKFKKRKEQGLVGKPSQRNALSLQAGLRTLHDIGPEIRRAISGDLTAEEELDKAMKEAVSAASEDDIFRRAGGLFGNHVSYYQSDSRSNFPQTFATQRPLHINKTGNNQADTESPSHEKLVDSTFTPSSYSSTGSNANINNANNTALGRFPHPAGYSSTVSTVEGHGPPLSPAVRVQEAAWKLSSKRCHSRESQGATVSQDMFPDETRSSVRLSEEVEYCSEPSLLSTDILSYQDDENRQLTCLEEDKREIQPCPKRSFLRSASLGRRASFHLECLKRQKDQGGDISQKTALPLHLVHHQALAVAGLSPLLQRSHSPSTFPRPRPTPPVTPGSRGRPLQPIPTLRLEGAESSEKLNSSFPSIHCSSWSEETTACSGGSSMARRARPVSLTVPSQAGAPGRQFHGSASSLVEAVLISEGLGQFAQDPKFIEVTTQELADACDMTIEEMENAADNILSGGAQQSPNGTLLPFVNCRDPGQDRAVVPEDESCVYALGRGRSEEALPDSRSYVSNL
T1 sequence (P54290 25-944 partner limits assumed, other chains not shown): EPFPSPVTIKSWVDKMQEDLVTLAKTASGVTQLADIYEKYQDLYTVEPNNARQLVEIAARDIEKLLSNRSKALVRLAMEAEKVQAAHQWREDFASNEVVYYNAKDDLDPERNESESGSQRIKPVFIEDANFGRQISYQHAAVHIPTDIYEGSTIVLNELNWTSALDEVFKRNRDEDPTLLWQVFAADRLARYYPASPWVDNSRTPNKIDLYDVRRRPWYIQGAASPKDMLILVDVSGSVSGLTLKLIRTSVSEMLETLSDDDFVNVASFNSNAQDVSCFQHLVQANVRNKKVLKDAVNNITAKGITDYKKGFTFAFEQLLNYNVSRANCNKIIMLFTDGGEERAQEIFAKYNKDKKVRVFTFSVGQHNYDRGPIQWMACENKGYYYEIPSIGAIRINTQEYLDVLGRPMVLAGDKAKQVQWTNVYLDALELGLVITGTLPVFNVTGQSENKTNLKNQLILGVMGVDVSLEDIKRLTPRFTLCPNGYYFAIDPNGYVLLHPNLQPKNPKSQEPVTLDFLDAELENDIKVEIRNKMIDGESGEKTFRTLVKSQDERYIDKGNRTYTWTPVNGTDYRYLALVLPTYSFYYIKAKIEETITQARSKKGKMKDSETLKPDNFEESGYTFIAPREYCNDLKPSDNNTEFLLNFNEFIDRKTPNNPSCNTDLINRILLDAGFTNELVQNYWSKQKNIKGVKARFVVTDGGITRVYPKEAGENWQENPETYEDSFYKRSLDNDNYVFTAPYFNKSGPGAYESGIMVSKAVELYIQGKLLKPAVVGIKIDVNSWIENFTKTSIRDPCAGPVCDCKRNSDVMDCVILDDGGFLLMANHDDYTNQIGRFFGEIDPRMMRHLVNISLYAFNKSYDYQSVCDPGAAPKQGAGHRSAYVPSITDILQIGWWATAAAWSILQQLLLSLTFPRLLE
T1 sequence (P54290 945-1091 partner limits assumed, other chains not shown): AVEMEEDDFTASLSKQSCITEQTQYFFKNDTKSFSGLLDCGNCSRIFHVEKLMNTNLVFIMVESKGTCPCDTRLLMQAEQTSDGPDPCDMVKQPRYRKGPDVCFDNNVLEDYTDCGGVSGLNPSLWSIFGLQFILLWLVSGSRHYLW
Experimental: [^3 H]-Nitrendipine binding assay was carried out according to the method described by G. T. Bolger, et al., Biochem. Biophys. Res. Comm., 104, 1604-1609, 1982 (1). The reaction mixture contained rat cardiac microsomes (source of Ca^2 + channels), 0.5 nM [^3 H]-nitrendipinewith or without potential displacer in Tris buffer. The mixture was incubated for 60 minutes at 25° and subsequently terminated by rapid filtration through a glass fiber-filter. Membrane-bound [^3 H]-nitrendipine trapped in the filter was quantitated by scintillation counting. The inhibitory concentration (IC50) of potential displacer which gives 50% displacement of the total specifically bound [^3 H]-nitrendipine is presented as a measure of the affinity of such compound for the Ca^2 + channel.

SMILES	EC50 (guinea pig left atria)	Intrinsic Activity (ratio of the maximum effect of the test compound to that of Bay K 8644) (guinea pig left atria)	calcium ion influx and resulting effects (calcium ions influx)	potency as a calcium agonist relative to CGP28392 (calcium ions influx; compared with CGP28392)	toxicity [1]	IC50 (alpha1 -adrenoceptors)	IC50 (Ca^2 + channels)
COC(=O)C1=C(C)NC(C)=C([N+](=O)[O-])C1c1ccccc1C(F)(F)F (centres unmarked) [Bay K8644]	150 nM	100%	promote an influx of calcium ions, therefore producing positive inotropic and vasoconstrictor effects	more than 10 times	toxic because it causes coronary vasoconstriction		
CCOC(=O)C1=C(C)NC2=C(C(=O)OC2)C1c1ccccc1OC(F)F (centres unmarked) [CGP28392]			promote an influx of calcium ions, therefore producing positive inotropic and vasoconstrictor effects				
COC(=O)C1=C(C)NC(C)=C([N+](=O)[O-])C1c1ccccc1OCCCCN1CCN(c2ncccn2)CC1 (centres unmarked) [Example 60, 1,4-dihydro-2,6-dimethyl-'nitro-4-[2-(4-(4-(2-pyrimidinyl)-piperazinyl)butoxy)phenyl]methylester-36pyridinecarboxylic acid]	1000 nM	50%				4900 nM	1000 nM
COC(=O)C1=C(C)NC(C)=C([N+](=O)[O-])C1c1ccccc1OCCCCCCCCCCN1CCN(c2ccccc2OC)CC1 (centres unmarked) [Example 61, 1,4-dihydro-2,6-dimethyl-4[2(10-(4-(2-methoxyphenyl)-piperazinyl)decyloxy)phenyl]-5-nitro-methyl ester-3-pyridinecarboxylic acid]	> 100000 nM	10%				1100 nM	67 nM
COC(=O)C1=C(C)NC(C)=C([N+](=O)[O-])C1c1cccc(OCCN2CCN(c3ccccc3OC)CC2)c1 (centres unmarked) [Example 69]	> 100000 nM	10%				350 nM	4600 nM
COC(=O)C1=C(C)NC(C)=C([N+](=O)[O-])C1c1cccc(OC)c1OCCN1CCN(c2ccccc2OC)CC1 (centres unmarked) [Example 87]	> 100000 nM	0%				48 nM	2900 nM
COC(=O)C1=C(C)NC(C)=C([N+](=O)[O-])C1c1ccccc1OCCCN1CCN(c2ccccc2OC)CC1 (centres unmarked) [Example 88]	2000 nM	50%				260 nM	4800 nM
COC(=O)C1=C(C)NC(C)=C([N+](=O)[O-])C1c1cccc(OCCCN2CCN(c3ccccc3OC)CC2)c1 (centres unmarked) [Example 89]	20000 nM	20%				71 nM	4000 nM
COC(=O)C1=C(C)NC(C)=C([N+](=O)[O-])C1c1ccccc1OCCCCN1CCN(c2ccccc2OC)CC1 (centres unmarked) [Example 105]	3000 nM	20%				180 nM	220 nM
COC(=O)C1=C(C)NC(C)=C([N+](=O)[O-])C1c1cccc(OC)c1OCCCN1CCN(c2ccccc2OC)CC1 (centres unmarked) [Example 106]	> 100000 nM	0%				140 nM	250 nM
COC(=O)C1=C(C)NC(C)=C([N+](=O)[O-])C1c1cccc(OCCCCN2CCN(c3ccccc3OC)CC2)c1 (centres unmarked) [Example 107]	> 100000 nM	0%				410 nM	4100 nM
CCOc1cccc(C2C(C(=O)OC)=C(C)NC(C)=C2[N+](=O)[O-])c1OCCCN1CCN(c2ccccc2OC)CC1 (centres unmarked) [Example 108]	> 100000 nM	0%				1200 nM	990 nM
CCOc1cccc(C2C(C(=O)OC)=C(C)NC(C)=C2[N+](=O)[O-])c1OCCCCN1CCN(c2ccccc2OC)CC1 (centres unmarked) [Example 109]	> 100000 nM	0%				610 nM	790 nM
COC(=O)C1=C(C)NC(C)=C([N+](=O)[O-])C1c1cccc(OC)c1OCCCCN1CCN(c2ccccc2OC)CC1 (centres unmarked) [Example 110]	> 100000 nM	0%				160 nM	1000 nM
COC(=O)C1=C(C)NC(C)=C([N+](=O)[O-])C1c1cccc(OC)c1OCCCCCN1CCN(c2ccccc2OC)CC1 (centres unmarked) [Example 111]	> 100000 nM	0%				190 nM	850 nM
CCOc1cccc(C2C(C(=O)OC)=C(C)NC(C)=C2[N+](=O)[O-])c1OCCCCCN1CCN(c2ccccc2OC)CC1 (centres unmarked) [Example 112]	> 100000 nM	0%				180 nM	1700 nM
COC(=O)C1=C(C)NC(C)=C([N+](=O)[O-])C1c1cccc(OCCCCCN2CCN(c3ccccc3OC)CC2)c1 (centres unmarked) [Example 113]	> 100000 nM	0%				570 nM	3300 nM
COC(=O)C1=C(C)NC(C)=C([N+](=O)[O-])C1c1cccc(OC)c1OC/C=C\CN1CCN(c2ccccc2OC)CC1 (centres unmarked) [Example 114]	> 100000 nM	0%				240 nM	1600 nM
COC(=O)C1=C(C)NC(C)=C([N+](=O)[O-])C1c1ccccc1OCCCCN1CCN(c2ccccn2)CC1 (centres unmarked) [Example 116]	> 100000 nM	0%				500 nM	580 nM
CCOC(=O)C1=C(C)NC(C)=C([N+](=O)[O-])C1c1cccc(OCCCN2CCN(c3ccccc3OC)CC2)c1 (centres unmarked) [Example 117]	> 100000 nM	0%				280 nM	10000 nM
CCOC(=O)C1=C(C)NC(C)=C([N+](=O)[O-])C1c1ccccc1OCCCCN1CCN(c2ccccc2OC)CC1 (centres unmarked) [Example 120]	30000 nM	50%				440 nM	470 nM
COC(=O)C1=C(C)NC(C)=C([N+](=O)[O-])C1c1cccc(OCCCN2CCN(C(c3ccc(F)cc3)c3ccc(F)cc3)CC2)c1 (centres unmarked) [Example 123]	> 100000 nM	0%				4500 nM	1700 nM
COC(=O)C1=C(C)NC(C)=C([N+](=O)[O-])C1c1cccc(OCC=CCN2CCN(c3ccccc3OC)CC2)c1 (centres unmarked) [Example 125]	> 100000 nM	0%				440 nM	1400 nM
COC(=O)C1=C(C)NC(C)=C([N+](=O)[O-])C1c1ccccc1OCCCCCCN1CCN(c2ccccc2OC)CC1 (centres unmarked) [Example 129]	2000 nM	15%				380 nM	360 nM
COC(=O)C1=C(C)NC(C)=C([N+](=O)[O-])C1c1cccc(OCCCCCCN2CCN(c3ccccc3OC)CC2)c1 (centres unmarked) [Example 130]	3000 nM	25%				330 nM	380 nM
COC(=O)C1=C(C)NC(C)=C([N+](=O)[O-])C1c1cccc([N+](=O)[O-])c1OCCCN1CCN(c2ccccc2OC)CC1 (centres unmarked) [Example 139]	> 100000 nM	0%				140 nM	120 nM
COC(=O)C1=C(C)NC(C)=C([N+](=O)[O-])C1c1cccc([N+](=O)[O-])c1OCCCCCN1CCN(c2ccccc2OC)CC1 (centres unmarked) [Example 140]	> 100000 nM	0%				180 nM	160 nM
COC(=O)C1=C(C)NC(C)=C([N+](=O)[O-])C1c1cc(Br)ccc1OCCCCN1CCN(c2ccccc2OC)CC1 (centres unmarked) [Example 142]	> 100000 nM	0%				250 nM	180 nM
